From ChEMBL document CHEMBL1909046, “DrugMatrix in vitro pharmacology data”

How the values were obtained:
[1] = target: Sodium-dependent noradrenaline transporter (Homo sapiens, UniProt P23975); experiment: DRUGMATRIX: Norepinephrine Transporter radioligand binding (ligand: [125I] RTI-55); format: cell membranes, MDCK, Membrane; conditions: mdck; Not Active = under 50% inhibition at 10 µM
[2] = DRUGMATRIX: Atrial Natriuretic Factor (ANF) radioligand binding (ligand: [125I] ANF (rat)); format: cell membranes, Cavia porcellus, Dunkin-Hartley, Adrenal gland, Membrane; conditions: Not Active = under 50% inhibition at 10 µM
[3] = target: T1, 5-hydroxytryptamine receptor 2C (Homo sapiens, UniProt P28335); experiment: DRUGMATRIX: Serotonin (5-Hydroxytryptamine) 5-HT2C radioligand binding (ligand: [3H] Mesulergine); format: cell membranes, CHO-K1, Membrane; conditions: cho-k1; Not Active = under 50% inhibition at 10 µM
T1 sequence (P28335 whole entry): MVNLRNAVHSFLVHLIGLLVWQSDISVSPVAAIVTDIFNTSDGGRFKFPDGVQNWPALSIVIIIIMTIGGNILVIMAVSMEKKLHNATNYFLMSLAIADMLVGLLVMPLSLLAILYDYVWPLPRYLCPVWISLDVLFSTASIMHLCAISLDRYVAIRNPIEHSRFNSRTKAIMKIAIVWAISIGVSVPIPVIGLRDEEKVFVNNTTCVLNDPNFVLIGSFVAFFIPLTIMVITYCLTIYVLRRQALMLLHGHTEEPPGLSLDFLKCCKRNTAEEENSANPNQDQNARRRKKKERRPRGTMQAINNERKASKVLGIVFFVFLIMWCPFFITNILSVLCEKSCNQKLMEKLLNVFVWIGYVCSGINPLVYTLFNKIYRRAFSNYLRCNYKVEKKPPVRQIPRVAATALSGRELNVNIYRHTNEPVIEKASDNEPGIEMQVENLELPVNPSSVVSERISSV

[4] = target: Sigma non-opioid intracellular receptor 1 (Homo sapiens, UniProt Q99720); experiment: DRUGMATRIX: Sigma1 radioligand binding (ligand: [3H] Haloperidol); format: cell membranes, Jurkat, Membrane; conditions: jurkat; Not Active = under 50% inhibition at 10 µM
[5] = target: T2, Thromboxane-A synthase (Homo sapiens, UniProt P24557); experiment: biochemical; format: tissue-based, Platelet; conditions: platelet;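 also: enzyme inhibition assay with PGH2 supplied as substrate; in other assays of this panel Not Active means under 50% inhibition at 10 µM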
T2 sequence (P24557 whole entry): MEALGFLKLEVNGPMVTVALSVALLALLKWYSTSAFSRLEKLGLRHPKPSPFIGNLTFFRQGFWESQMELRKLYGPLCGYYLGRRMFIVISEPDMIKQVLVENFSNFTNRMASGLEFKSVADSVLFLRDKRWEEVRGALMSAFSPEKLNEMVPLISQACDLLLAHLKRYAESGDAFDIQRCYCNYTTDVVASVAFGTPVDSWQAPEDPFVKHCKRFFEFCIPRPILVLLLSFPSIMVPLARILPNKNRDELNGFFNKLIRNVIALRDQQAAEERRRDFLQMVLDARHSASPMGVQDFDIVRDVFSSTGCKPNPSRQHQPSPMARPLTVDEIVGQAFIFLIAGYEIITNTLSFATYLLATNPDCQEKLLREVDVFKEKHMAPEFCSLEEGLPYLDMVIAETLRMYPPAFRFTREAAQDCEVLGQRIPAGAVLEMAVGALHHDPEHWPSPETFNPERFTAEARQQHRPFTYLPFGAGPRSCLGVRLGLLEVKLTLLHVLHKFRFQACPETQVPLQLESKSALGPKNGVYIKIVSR

[6] = DRUGMATRIX: Glutamate, NMDA, Agonism radioligand binding (ligand: [3H] CGP-39653); format: cell membranes, Rattus norvegicus, Wistar, Cerebral cortex, Membrane; conditions: Not Active = under 50% inhibition at 10 µM
[7] = target: Platelet-activating factor receptor (Homo sapiens, UniProt P25105); experiment: biochemical; format: tissue-based; conditions: platelet; also: in other assays of this panel Not Active means under 50% inhibition at 10 µM
[8] = target: T3, Receptor-type tyrosine-protein phosphatase C (Homo sapiens, UniProt P08575); parameters: species or system Escherichia coli;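 also: inhibition of CD45 enzyme activity measured using DiFMUP as substrate; in other assays of this panel Not Active means under 50% inhibition at 10 µM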
T3 sequence (P08575 whole entry): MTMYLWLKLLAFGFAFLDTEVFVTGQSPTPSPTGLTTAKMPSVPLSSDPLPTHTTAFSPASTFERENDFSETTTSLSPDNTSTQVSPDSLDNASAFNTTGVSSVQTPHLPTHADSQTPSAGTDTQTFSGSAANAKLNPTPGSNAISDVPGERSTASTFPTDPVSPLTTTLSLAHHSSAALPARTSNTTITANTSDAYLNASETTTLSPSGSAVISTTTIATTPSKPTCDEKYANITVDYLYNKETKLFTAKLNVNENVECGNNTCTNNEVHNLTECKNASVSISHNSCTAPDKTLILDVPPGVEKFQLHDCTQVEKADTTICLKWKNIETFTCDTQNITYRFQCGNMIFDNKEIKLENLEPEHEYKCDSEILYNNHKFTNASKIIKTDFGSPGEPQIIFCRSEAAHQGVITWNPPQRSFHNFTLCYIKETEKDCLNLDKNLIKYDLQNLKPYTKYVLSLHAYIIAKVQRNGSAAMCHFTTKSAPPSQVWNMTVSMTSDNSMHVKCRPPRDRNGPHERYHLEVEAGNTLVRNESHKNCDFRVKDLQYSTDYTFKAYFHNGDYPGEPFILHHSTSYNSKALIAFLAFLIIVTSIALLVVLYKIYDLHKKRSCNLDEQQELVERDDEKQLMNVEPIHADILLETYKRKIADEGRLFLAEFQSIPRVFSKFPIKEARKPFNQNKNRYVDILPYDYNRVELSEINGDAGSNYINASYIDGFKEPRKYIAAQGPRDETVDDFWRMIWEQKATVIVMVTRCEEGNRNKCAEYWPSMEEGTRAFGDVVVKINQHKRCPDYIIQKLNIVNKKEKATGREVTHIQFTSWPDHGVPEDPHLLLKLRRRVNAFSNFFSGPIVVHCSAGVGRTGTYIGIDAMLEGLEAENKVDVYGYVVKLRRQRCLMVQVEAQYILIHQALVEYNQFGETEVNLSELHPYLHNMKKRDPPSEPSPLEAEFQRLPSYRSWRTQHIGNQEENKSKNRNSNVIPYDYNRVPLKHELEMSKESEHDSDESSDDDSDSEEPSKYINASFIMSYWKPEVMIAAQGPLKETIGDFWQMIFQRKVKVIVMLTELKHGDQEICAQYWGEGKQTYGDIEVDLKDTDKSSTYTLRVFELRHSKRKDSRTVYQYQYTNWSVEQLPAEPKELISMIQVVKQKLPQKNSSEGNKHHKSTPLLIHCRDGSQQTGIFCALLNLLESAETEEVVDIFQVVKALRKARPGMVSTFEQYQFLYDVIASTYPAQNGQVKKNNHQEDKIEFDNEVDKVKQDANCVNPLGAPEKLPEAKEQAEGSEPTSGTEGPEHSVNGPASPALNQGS

[9] = target: Adenosine receptor A2a (Homo sapiens, UniProt P29274); experiment: DRUGMATRIX: Adenosine A2A radioligand binding (ligand: […]); format: cell membranes, HEK293, Membrane; conditions: hek293; Not Active = under 50% inhibition at 10 µM
[10] = target: Voltage-gated inwardly rectifying potassium channel KCNH2 (Homo sapiens, UniProt Q12809); conditions: hek293; also: in other assays of this panel Not Active means under 50% inhibition at 10 µM
Chain of Voltage-gated inwardly rectifying potassium channel KCNH2 (Q12809 whole entry): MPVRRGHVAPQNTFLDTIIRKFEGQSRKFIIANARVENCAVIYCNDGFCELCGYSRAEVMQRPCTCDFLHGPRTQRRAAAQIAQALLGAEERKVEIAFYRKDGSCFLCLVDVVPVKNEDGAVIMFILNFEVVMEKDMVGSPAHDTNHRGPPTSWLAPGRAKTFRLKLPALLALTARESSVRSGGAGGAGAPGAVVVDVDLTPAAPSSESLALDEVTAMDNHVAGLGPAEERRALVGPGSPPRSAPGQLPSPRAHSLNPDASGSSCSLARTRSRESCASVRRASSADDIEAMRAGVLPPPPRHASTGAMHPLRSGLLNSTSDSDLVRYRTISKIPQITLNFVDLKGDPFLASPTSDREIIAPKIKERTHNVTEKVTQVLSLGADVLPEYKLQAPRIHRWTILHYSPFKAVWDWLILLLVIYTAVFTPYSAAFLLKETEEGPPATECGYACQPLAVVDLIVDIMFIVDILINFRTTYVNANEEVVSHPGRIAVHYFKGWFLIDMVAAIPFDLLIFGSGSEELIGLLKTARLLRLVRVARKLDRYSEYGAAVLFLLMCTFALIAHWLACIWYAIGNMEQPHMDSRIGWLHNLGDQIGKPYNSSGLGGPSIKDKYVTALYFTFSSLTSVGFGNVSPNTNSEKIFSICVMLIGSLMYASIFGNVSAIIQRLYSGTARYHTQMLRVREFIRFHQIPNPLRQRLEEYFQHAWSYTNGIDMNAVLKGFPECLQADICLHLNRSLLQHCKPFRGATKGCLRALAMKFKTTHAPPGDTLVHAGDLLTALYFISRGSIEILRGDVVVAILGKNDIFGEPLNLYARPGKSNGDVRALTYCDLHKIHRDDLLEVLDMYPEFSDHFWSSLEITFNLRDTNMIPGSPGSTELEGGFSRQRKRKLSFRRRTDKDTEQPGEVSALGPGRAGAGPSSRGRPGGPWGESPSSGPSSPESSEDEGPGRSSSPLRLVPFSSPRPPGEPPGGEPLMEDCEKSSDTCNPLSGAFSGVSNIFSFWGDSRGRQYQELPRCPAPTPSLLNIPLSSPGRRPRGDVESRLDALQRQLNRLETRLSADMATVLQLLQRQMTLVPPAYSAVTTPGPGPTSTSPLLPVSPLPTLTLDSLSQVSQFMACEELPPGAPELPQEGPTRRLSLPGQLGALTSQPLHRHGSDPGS

Chain of Sodium-dependent noradrenaline transporter (P23975 whole entry): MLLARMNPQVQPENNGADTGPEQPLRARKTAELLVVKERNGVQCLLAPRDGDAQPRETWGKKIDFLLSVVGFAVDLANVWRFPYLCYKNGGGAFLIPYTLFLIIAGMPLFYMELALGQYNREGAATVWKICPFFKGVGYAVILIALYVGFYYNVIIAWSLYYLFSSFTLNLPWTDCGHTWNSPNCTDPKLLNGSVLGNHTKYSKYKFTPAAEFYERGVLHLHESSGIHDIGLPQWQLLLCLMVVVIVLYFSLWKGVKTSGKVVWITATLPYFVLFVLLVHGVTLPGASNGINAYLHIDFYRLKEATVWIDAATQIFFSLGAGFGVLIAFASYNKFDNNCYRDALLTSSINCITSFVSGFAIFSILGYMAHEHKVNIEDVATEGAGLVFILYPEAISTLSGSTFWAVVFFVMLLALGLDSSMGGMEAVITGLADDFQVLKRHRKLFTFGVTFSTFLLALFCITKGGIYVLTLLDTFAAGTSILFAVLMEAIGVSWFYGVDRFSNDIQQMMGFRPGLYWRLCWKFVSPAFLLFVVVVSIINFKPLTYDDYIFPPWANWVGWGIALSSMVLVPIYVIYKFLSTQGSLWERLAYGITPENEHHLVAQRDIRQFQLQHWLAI
Chain of Platelet-activating factor receptor (P25105 whole entry): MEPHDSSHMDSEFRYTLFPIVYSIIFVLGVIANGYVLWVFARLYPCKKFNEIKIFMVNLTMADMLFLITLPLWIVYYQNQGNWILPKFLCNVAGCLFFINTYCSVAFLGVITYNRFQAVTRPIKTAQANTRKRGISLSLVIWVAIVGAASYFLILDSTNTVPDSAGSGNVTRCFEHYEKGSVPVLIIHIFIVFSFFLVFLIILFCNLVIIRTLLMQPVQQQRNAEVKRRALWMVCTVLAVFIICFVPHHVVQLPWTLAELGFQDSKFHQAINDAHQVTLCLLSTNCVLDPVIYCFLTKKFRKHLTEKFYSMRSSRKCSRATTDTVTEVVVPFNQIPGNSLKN
Chain of Adenosine receptor A2a (P29274 whole entry): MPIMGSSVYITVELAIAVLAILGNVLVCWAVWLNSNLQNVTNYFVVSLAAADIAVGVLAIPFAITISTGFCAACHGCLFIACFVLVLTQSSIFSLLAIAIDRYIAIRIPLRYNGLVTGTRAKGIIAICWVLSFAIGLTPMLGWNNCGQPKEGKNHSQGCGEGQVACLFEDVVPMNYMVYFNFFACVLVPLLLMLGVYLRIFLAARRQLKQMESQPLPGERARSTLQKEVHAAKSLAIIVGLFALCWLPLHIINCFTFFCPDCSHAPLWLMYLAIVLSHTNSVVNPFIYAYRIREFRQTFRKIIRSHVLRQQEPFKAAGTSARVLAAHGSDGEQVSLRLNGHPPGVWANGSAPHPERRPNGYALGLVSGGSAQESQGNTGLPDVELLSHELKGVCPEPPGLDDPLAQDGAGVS
Chain of Sigma non-opioid intracellular receptor 1 (Q99720 whole entry): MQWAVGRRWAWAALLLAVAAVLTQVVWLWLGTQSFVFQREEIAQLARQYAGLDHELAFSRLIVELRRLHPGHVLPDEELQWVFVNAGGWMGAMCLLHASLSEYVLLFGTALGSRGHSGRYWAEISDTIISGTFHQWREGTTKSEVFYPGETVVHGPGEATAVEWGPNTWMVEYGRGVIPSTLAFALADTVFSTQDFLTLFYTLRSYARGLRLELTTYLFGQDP

COC1=CC(=O)C[C@@H](C)[C@]12Oc1c(Cl)c(OC)cc(OC)c1C2=O [GRISEOFULVIN]
Not Active: IC50 [1] | IC50 [2] | Ki [2] | IC50 [3] | IC50 [4] | IC50 [5] | IC50 [6] | Ki [6] | IC50 [7] | IC50 [8] | IC50 [9] | IC50 [10] | Ki [10]

C/C=C1\[C@H]2C=C(C)C[C@]1(N)c1ccc(=O)[nH]c1C2 [HUPERZINE A]
Not Active: IC50 [1] | IC50 [2] | Ki [2] | IC50 [3] | IC50 [4] | IC50 [5] | IC50 [6] | Ki [6] | IC50 [7] | IC50 [8] | IC50 [9] | IC50 [10] | Ki [10]

NS(=O)(=O)c1cc2c(cc1Cl)NCNS2(=O)=O [HYDROCHLOROTHIAZIDE]
Not Active: IC50 [1] | IC50 [2] | Ki [2] | IC50 [3] | IC50 [4] | IC50 [5] | IC50 [6] | Ki [6] | IC50 [7] | IC50 [8] | IC50 [9] | IC50 [10] | Ki [10]

O=P1(NCCCl)OCCCN1CCCl (stereo not drawn) [IFOSFAMIDE]
Not Active: IC50 [1] | IC50 [2] | Ki [2] | IC50 [3] | IC50 [4] | IC50 [5] | IC50 [6] | Ki [6] | IC50 [7] | IC50 [8] | IC50 [9] | IC50 [10] | Ki [10]

CN1CCC[C@H]1c1cccnc1 [NICOTINE]
Not Active: IC50 [1] | IC50 [2] | Ki [2] | IC50 [3] | IC50 [4] | IC50 [5] | IC50 [6] | Ki [6] | IC50 [7] | IC50 [8] | IC50 [9] | IC50 [10] | Ki [10]

O=C1CN=C(c2ccccc2)c2cc([N+](=O)[O-])ccc2N1 [NITRAZEPAM]
Not Active: IC50 [1] | IC50 [2] | Ki [2] | IC50 [3] | IC50 [4] | IC50 [5] | IC50 [6] | Ki [6] | IC50 [7] | IC50 [8] | IC50 [9] | IC50 [10] | Ki [10]
